According to patent US5281710A, “Dynemicin analogs: synthesis, methods of preparation and use” (The Scripps Research Institute, priority 1992, dated 1994):
Where two headings read alike, the source gives them in different places.

Legend:
cancer cell lines = experiment: cells; format: cell-based; conditions: Average data obtained from 5~10 cell lines; read-out: IC50 (average)
Protocol: (§1) In addition to the screening already discussed, several of the before-described compounds and chimeras were screened against several or all of a panel of ten to twenty-five cancerous cell lines as target cells and seven "normal" cell preparations. This screening utilized a sulforhodamine B cytotoxidity assay as discussed below.
SULFORHODAMINE B CYTOTOXICITY ASSAY
a. Stock drug solutions were prepared by dissolving drug in the appropriate solvent (determined during chemical characterization studies) and sterile filtering the drug-solvent solution through a sterile 0.2μ filter unit. An aliquot was taken from each filtered drug solution and the O.D. was measured to determine the drug concentration.
f. Incubate (37° C., 5-10 percent CO2 in humidified incubator) plates for a total of 72 hours. Check plates at 24 hour intervals microscopically for signs of cytotoxicity.
(§2) IC50 values; i.e., the concentration of Compound required to kill one-half of the treated cells, were then calculated.
All other cells or cell lines were obtained from the American Type Culture Collection (ATCC) (all except CHO cells are human or mouse cancer cell lines as described by the ATC).
Tables 1 and 2 herein below provide average IC50 data from five to all ten of the above cancer cells lines for fused ring enediyne compounds disclosed herein. Those tables provide a generic structure and a description of the R group of that generic structure for each compound. Compound numbers as noted hereinbefore are also provided. Table 3 contains data for two fused-ring enediyne compounds (Compounds 47 and 120) as well as data for six chimers. Table 4 contains cancer cell and noraml cell cytotoxicity data for one select fused ring enediyne, Compound 153 against a number of "normal" cell preparations and tumor cell lines. Table 5 contains cancer cell and normal cell cytotoxicity data for another fused ring enediyne, Compound 250 against a similar panel of cells.

in vitro = format: cell-based, human; conditions: human, nhdf cells; Table 7, NHDF; read-out: Cytotoxicity (IC50)
Protocol: as §1, §2
NHDF Normal human dermal fibroblasts

SK-Mel-28 melanoma cells = experiment: Sulforhodamine B cytotoxicity, SK-Mel-28; format: cell-based; conditions: Homo sapiens
Protocol: as §1, §2

[1] = system: Ovcar-3 ovarian carcinoma cells; experiment: Sulforhodamine B cytotoxicity, Ovcar-3; format: cell-based; conditions: read-out: Cytotoxicity (IC50)
Protocol: as §1, §2

[2] = system: HT-29 colon carcinoma cells; experiment: Sulforhodamine B cytotoxicity, HT-29; format: cell-based; conditions: Table 7, HT-29, read-out: Cytotoxicity (IC50)
Protocol: as §1, §2

[3] = system: MCF-7 breast carcinoma cells; experiment: Sulforhodamine B cytotoxicity, MCF-7; format: cell-based; conditions: Table 7, MCF-7, read-out: Cytotoxicity (IC50)
Protocol: as §1, §2

[4] = system: UCLA P-3 non-small cell lung carcinoma cells; experiment: Sulforhodamine B cytotoxicity, UCLA-P3; format: cell-based, human; conditions: read-out: Cytotoxicity (IC50)
Protocol: as §1, §2
UCLA P-3 Dr. D. Morton, University of California, […]

[5] = system: H-322 lung carcinoma cells; experiment: Sulforhodamine B cytotoxicity, H-322; format: cell-based; conditions: NCI-H322; Table 7, H-322; read-out: Cytotoxicity (IC50)
Protocol: as §1, §2

[6] = system: Capan-1 pancreatic carcinoma cells; experiment: Sulforhodamine B cytotoxicity, Capan-1; format: cell-based
Protocol: as §1, §2

[7] = system: HL-60 promyeocytic leukemia cells; experiment: Sulforhodamine B cytotoxicity, HL-60; format: cell-based
Protocol: as §1, §2

[8] = system: P-388 mouse lymphoma cells; experiment: Sulforhodamine B cytotoxicity, P-388; format: cell-based; conditions: Mus musculus, P388; Table 7, P-388; read-out: Cytotoxicity (IC50)
Protocol: as §1, §2

[9] = Sulforhodamine B cytotoxicity, CHO; format: cell-based, Chinese hamster; conditions: hamster, cho cells; Table 7, CHO; read-out: Cytotoxicity (IC50)
Protocol: as §1, §2

φX174 Form I DNA = experiment: φX174 supercoiled DNA cleavage, agarose gel; format: biochemical; conditions: for DNA cleavage: 37° C.
Protocol: The ethereal solution of Compound 40 produced by the LiAlH4 reduction of Compound 21 (39 mg, 0.10 mmol) was evaporated in vacuo to dryness and the residue dissolved in THF (4 mL) to give a 25 mM solution of Compound 40, assuming complete conversion of Compound 21. […]
Thus, a vial containing a 50 micromolar per base pair solution […] of the same buffer solution and 2.0 microliters of a 5.0 millimolar ethanol solution of Compound 40.
[…] A 2.0 microliter portion of glycerol loading buffer solution containing bromothymol blue indicator was added to each vial. A 10 microliter aliquot was then drawn from each. Gel electrophoresis analysis of the aliquots was performed using a 1.0 percent agarose gel with ethidium bromide run at 115 volts for 1 hour. DNA cleavage was indicated by the formation of nicked relaxed circular DNA (form II) or linearized DNA (form III), which was detected by visual inspection of the gel under 310 nanometer ultraviolet light using ethidium bromide.

[10] = system: MCF-7(ADR) breast carcinoma cells; experiment: Sulforhodamine B cytotoxicity, MCF-7/ADR; format: cell-based; conditions: Homo sapiens, NCI/ADR-RES, Adriamycin resistant
Protocol: as §1, §2

[11] = system: P-388 leukemia cells in Balb/c mice; experiment: In vivo P-388 leukemia in Balb/c mice; set-up: species or system mouse; conditions: single dose
Protocol: In an in vivo study whose results are shown in FIG. 8, Balb/c mice were injected intra-peritoneally with 10^6 P-388 leukemia cells per mouse (the cells were suspended in 100 μl RPMI medium) on day zero. Therapy was started on day 1 by injecting each group of four animals with the indicated dose of Compound 45, which was administered only once in this assay. The course of therapy was followed by tumor-induced weight change in the animals and by recording death incidents (arrows). […] At the dose of 25 mg/kg Compound 45, the increase in life span over the control group was 175 percent (therapeutic group/control group).

[12] = Lethal dose / toxicity in mice; format: in vivo, mouse
[13] = system: MOLT-4 (Leukemia) cell line; experiment: cells; format: cell-based; conditions: Table 7, Molt-4; read-out: Cytotoxicity (IC50)
Protocol: as §1, §2

[14] = system: tumor cells and "normal" cells; experiment: Relative activity against tumor cells and normal cells; format: cell-based
From the text: In contrast, 100 percent of normal human mammary epithelial cells (HMEC) were viable at the same concentration.

[15] = system: SK-Mel-28, M-14, M-21, Capan-1, Ovcar-3, Ovcar-4, UCLA-P-3, U-87, U-251 and Molt-4 cell lines; format: cell-based; conditions: ten tumor cell lines
Protocol: In other studies, IC50 values were determined for the anti-tumor agents dynemicin A, calicheamicin γ1^I, taxol, vinblastine/vincristine, doxorubicin, actinomycin D and bleomycin sulfate against the SK-Mel-28, M-14, M-21, Capan-1, Ovcar-3, Ovcar-4, UCLA-P-3, U-87, U-251 and Molt-4 cell lines.

[16] = SK-MEL-28, Table 7, SK-Mel-28, read-out: Cytotoxicity (IC50)

## O=C(Oc1ccccc1)N1c2ccccc2C23OC24CCCC3C#C/C=C\C#CC14 (stereo not drawn) [Compound 21]
Cancer cell lines
  IC50: 5000 nM
In vitro
  CC50: 6.3 µM
SK-Mel-28 melanoma cells; [16]
  IC50: 63 µM
[1]; Homo sapiens, OVCAR-3, Table 7, Ovcar-3
  IC50: 780 nM
[2]; Homo sapiens, HT-29, 72 h
  IC50: 390 nM
[3]; Homo sapiens, MCF7, 72 h
  IC50: 3.1 µM
[4]; Homo sapiens, UCLA P-3, Table 7, UCLA-P3
  IC50: 780 nM
[5]
  IC50: 3.1 µM
[6]; Homo sapiens, CAPAN-1, Table 7, Capan-1, read-out: Cytotoxicity (IC50)
  IC50: 78 nM
[7]; Homo sapiens, HL-60, Table 7, HL-60, read-out: Cytotoxicity (IC50)
  IC50: 98 nM
[8]
  IC50: 98 nM
[9]
  CC50: 6.3 µM

## O=C(OCCS(=O)(=O)c1ccccc1)N1c2ccccc2C23OC24CCCC3C#C/C=C\C#CC14 (stereo not drawn) [Compound 45]
φX174 Form I DNA; pH 8.5, 24 or 48 hours
  DNA cleavage: strong DNA cleavage activity
φX174 Form I DNA; pH 8.5, 1000 and 100 μM
  DNA cleavage potency: comparable potencies
Cancer cell lines
  IC50: 200 nM
SK-Mel-28 melanoma cells; SK-MEL-28, SK-Mel-28, read-out: IC50
  IC50: 6.3 µM
[10]
  IC50: 1600 nM
[6]; Homo sapiens, CAPAN-1, Capan-1, read-out: IC50
  IC50: 1600 nM
[7]; Homo sapiens, HL-60, HL-60, read-out: IC50
  IC50: 3900 nM
[11]; 12 mg/kg
  deaths / weight course: three of the four animals died
[11]; 25 mg/kg
  increase in life span over control group: 175%
[11]; 50 mg/kg, rapid weight loss
  time to death: ≤ 8 days
[12]
  toxicity relative to naturally occurring enediynes: significantly less than naturally occurring enediynes
[12]; mouse, in vivo
  LD50: ~50 mg/kg

## CC(COC(=O)N1c2ccccc2C23OC24CCCC3C#CC=CC#CC14)S(=O)(=O)c1ccccc1 (stereo not drawn) [Compound 427]
φX174 Form I DNA; 5.0 mM, pH 8.5 and 9.0, 48 hours
  DNA cleavage: greatly reduced in vitro DNA cleaving ability
[13]
  IC50: 1 nM
In vitro
  CC50: < 100 µM
SK-Mel-28 melanoma cells; [16]
  IC50: 50 µM
[1]; Table 7, Ovcar-3
  IC50: 3100 nM
[2]; 4320 min
  IC50: 780 nM
[3]; 4320 min
  IC50: 25 µM
[4]; Table 7, UCLA-P3
  IC50: 3100 nM
[5]
  IC50: 13 µM
[6]; Table 7, Capan-1, read-out: Cytotoxicity (IC50)
  IC50: 3100 nM
[7]; Table 7, HL-60, read-out: Cytotoxicity (IC50)
  IC50: 780 nM
[8]
  IC50: 1600 nM
[9]
  CC50: < 100 µM
[14]
  selectivity between normal and cancer cells (qualitative): reduced cytotoxicity of Compound 427 against normal cell lines while maintaining considerable activity against cancer cell lines

## bleomycin sulfate [reference compound]
[15]
  relative potency among agents across cell lines: considerably less active against all the cell lines
